Reference: article PMC4854315, “Discovery of a novel allosteric inhibitor-binding site in ERK5: comparison with the canonical kinase hinge ATP-binding site” (Acta Crystallographica. Section D, Structural Biology, 2016)

How the values were obtained:
Experiment in all cases: Z'-LYTE kinase panel
Type in all cases: biochemical
PRKCB1 (PKC beta I) = target: T1, PRKCB1 (PKC beta I) (Homo sapiens, UniProt P05771)
T1 construct: purchased ThermoFisher (SelectScreen, Z'-LYTE)
Method in brief: (§1)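 Single-point screen, 10 µM compound; % inhibition read by Z′-LYTE (FRET-based) format per standard protocol; 225-kinase panel.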

TYRO3 (RSE) = target: T2, TYRO3 (RSE) (Homo sapiens, UniProt Q06418)
T2 construct: purchased ThermoFisher (SelectScreen, Z'-LYTE)
T2 sequence (Q06418 41-890): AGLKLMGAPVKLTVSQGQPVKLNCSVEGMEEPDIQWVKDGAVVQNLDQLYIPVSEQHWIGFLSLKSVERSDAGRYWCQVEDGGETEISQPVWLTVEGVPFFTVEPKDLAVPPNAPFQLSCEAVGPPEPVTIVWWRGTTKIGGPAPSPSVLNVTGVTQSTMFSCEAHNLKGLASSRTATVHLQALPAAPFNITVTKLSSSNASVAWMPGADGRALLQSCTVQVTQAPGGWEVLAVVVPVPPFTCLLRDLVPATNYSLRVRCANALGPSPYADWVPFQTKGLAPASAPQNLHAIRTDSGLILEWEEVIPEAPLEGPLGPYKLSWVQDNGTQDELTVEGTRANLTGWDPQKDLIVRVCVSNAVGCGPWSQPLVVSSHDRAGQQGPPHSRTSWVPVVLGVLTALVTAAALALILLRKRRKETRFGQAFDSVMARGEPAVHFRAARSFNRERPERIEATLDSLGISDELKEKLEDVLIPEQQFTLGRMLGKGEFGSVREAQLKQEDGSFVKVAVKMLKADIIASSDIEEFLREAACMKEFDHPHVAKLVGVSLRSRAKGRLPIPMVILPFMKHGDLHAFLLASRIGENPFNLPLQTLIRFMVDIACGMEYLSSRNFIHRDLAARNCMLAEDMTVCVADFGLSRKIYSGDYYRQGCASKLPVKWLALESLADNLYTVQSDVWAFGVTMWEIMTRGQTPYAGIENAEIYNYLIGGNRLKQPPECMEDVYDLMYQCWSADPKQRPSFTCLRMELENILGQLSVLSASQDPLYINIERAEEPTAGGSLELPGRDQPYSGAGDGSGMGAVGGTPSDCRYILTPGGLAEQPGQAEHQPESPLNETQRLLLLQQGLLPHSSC
Method in brief: as §1

PAK6 = target: T3, PAK6 (Homo sapiens, UniProt Q9NQU5)
T3 construct: purchased ThermoFisher (SelectScreen, Z'-LYTE)
Method in brief: as §1

PIM1 = target: T4, PIM1 (Homo sapiens, UniProt P11309)
T4 construct: purchased ThermoFisher (SelectScreen, Z'-LYTE)
Method in brief: as §1

RPS6KA6 (RSK4) = target: T5, RPS6KA6 (RSK4) (Homo sapiens, UniProt Q9UK32)
T5 construct: purchased ThermoFisher (SelectScreen, Z'-LYTE)
Method in brief: as §1

PDGFRA (PDGFR alpha) = target: T6, PDGFRA (PDGFR alpha) (Homo sapiens, UniProt P16234)
T6 construct: purchased ThermoFisher (SelectScreen, Z'-LYTE)
Method in brief: as §1

PLK2 = target: T7, PLK2 (Homo sapiens, UniProt Q9NYY3)
T7 construct: purchased ThermoFisher (SelectScreen, Z'-LYTE)
Method in brief: as §1

LYN A = target: T8, LYN A (Homo sapiens, UniProt P07948)
T8 construct: purchased ThermoFisher (SelectScreen, Z'-LYTE)
Method in brief: as §1

INSRR (IRR) = target: T9, INSRR (IRR) (Homo sapiens, UniProt P14616)
T9 construct: purchased ThermoFisher (SelectScreen, Z'-LYTE)
Method in brief: as §1

EGFR (ErbB1) = target: T10, EGFR (ErbB1) (Homo sapiens, UniProt P00533)
T10 construct: purchased ThermoFisher (SelectScreen, Z'-LYTE)
Method in brief: as §1

EPHA5 = target: T11, EPHA5 (Homo sapiens, UniProt P54756)
T11 construct: purchased ThermoFisher (SelectScreen, Z'-LYTE)
Method in brief: as §1

MET (cMet) = target: T12, MET (cMet) (Homo sapiens, UniProt P08581)
T12 construct: purchased ThermoFisher (SelectScreen, Z'-LYTE)
Method in brief: as §1

SGK (SGK1) = target: T13, SGK (SGK1) (Homo sapiens, UniProt O00141)
T13 construct: purchased ThermoFisher (SelectScreen, Z'-LYTE)
T13 sequence (O00141 1-431): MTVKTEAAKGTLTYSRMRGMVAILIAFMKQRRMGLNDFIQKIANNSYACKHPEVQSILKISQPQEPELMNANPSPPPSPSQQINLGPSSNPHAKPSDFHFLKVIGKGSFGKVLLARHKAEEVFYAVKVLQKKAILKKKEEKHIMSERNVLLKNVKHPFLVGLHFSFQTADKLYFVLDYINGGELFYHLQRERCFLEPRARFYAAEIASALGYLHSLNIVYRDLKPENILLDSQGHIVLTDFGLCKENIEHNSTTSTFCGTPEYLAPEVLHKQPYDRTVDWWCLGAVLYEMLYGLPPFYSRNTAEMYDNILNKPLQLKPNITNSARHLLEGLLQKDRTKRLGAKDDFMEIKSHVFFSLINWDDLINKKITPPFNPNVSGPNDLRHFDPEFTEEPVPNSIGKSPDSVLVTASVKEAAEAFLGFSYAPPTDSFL
Method in brief: as §1

CSNK1G3 (CK1 gamma 3) = target: T14, CSNK1G3 (CK1 gamma 3) (Homo sapiens, UniProt Q9Y6M4)
T14 construct: purchased ThermoFisher (SelectScreen, Z'-LYTE)
Method in brief: as §1

TBK1 = target: T15, TBK1 (Homo sapiens, UniProt Q9UHD2)
T15 construct: purchased ThermoFisher (SelectScreen, Z'-LYTE)
T15 sequence (Q9UHD2 1-729): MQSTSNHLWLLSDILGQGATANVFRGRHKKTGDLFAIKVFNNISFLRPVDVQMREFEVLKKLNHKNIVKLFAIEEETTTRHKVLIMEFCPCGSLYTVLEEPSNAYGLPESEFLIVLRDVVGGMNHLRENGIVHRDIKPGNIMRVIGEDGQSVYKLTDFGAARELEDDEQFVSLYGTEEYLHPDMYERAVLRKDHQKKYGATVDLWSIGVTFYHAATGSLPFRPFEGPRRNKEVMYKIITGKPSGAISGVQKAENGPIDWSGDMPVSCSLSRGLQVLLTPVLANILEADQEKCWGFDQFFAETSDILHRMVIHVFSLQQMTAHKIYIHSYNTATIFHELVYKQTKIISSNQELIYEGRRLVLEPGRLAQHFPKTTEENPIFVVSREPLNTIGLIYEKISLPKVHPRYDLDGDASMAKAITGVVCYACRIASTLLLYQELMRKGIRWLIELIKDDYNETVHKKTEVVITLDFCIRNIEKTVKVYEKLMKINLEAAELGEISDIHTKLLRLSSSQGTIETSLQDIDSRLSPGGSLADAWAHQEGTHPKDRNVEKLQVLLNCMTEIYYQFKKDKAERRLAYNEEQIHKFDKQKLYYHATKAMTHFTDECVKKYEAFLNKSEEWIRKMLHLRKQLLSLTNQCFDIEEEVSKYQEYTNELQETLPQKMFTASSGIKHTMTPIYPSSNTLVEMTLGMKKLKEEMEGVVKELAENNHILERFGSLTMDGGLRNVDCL
Method in brief: as §1

T1 sequence (P05771 whole entry): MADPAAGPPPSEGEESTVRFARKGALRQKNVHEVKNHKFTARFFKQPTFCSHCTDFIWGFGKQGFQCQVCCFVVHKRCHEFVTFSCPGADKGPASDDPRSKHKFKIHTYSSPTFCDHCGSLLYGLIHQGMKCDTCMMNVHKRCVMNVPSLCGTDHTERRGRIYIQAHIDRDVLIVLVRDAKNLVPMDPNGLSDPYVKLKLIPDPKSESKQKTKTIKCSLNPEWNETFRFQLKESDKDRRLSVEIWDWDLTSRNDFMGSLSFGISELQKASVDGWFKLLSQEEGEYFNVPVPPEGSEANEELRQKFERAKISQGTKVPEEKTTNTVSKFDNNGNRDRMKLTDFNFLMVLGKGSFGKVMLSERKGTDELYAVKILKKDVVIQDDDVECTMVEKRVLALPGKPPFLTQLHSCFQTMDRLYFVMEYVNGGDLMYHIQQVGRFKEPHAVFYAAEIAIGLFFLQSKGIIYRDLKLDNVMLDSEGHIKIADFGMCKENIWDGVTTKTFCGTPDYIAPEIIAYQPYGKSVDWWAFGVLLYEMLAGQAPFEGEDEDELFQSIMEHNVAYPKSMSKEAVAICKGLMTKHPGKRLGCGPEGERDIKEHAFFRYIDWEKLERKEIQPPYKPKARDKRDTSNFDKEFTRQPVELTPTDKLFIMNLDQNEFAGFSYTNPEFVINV
T9 sequence (P14616 27-1297): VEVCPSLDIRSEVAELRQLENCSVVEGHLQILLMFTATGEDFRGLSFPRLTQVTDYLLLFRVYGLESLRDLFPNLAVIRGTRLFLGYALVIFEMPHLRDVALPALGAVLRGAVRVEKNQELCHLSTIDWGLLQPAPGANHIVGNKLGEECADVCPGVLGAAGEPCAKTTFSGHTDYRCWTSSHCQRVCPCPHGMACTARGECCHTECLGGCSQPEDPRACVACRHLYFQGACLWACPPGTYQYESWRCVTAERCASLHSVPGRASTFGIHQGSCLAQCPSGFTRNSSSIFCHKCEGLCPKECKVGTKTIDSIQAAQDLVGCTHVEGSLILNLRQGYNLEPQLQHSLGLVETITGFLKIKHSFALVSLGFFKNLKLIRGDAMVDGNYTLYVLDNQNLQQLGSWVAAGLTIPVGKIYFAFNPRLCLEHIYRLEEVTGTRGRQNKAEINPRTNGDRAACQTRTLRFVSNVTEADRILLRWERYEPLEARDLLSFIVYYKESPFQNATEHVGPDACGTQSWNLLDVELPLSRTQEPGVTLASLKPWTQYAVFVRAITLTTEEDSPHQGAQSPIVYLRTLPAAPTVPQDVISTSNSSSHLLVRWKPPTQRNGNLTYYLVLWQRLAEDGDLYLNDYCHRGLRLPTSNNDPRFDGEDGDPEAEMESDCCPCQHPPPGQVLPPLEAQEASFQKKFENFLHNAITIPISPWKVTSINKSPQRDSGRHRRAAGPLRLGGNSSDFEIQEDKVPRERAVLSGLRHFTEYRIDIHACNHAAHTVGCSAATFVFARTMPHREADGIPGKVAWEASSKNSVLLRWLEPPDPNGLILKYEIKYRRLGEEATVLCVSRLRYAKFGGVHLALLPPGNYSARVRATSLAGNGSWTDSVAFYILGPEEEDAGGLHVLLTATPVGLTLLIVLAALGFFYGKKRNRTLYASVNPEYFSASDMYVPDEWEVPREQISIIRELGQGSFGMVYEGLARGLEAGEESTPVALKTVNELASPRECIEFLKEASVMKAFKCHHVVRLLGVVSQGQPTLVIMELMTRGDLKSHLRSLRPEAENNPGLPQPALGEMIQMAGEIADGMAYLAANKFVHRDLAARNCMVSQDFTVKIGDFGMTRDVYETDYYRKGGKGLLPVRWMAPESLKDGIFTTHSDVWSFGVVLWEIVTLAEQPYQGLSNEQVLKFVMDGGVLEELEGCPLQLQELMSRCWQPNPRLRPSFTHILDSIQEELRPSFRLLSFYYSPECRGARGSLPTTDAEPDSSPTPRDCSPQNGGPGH
T6 sequence (P16234 24-1089): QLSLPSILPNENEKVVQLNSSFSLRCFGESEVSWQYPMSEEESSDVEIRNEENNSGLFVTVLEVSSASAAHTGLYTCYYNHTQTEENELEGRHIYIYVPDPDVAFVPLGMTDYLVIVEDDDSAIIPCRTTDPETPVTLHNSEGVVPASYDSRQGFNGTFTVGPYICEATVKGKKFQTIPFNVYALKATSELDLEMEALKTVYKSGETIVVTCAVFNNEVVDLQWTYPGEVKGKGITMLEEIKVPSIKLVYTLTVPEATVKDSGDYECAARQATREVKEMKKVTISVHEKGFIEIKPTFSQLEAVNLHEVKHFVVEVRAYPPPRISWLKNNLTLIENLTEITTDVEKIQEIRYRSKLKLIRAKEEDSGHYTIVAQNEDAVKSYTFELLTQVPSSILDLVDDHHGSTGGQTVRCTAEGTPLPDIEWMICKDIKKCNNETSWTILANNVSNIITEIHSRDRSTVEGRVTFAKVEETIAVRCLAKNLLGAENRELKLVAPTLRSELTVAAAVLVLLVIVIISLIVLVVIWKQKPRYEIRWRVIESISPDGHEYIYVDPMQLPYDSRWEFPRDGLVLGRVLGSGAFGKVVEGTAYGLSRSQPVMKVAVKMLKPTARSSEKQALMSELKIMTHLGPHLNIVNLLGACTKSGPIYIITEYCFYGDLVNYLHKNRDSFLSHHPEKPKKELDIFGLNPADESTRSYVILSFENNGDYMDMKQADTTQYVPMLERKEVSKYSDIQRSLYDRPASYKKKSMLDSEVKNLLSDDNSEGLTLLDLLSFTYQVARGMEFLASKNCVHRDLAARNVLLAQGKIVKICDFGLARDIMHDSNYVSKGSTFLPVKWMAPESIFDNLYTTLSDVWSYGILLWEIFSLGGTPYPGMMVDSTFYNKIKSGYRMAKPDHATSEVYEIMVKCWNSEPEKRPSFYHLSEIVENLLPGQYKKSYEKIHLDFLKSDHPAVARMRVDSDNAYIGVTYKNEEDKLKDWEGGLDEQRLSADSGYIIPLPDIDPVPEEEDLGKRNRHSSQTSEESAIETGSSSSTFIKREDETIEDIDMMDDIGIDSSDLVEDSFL
T4 sequence (P11309 whole entry): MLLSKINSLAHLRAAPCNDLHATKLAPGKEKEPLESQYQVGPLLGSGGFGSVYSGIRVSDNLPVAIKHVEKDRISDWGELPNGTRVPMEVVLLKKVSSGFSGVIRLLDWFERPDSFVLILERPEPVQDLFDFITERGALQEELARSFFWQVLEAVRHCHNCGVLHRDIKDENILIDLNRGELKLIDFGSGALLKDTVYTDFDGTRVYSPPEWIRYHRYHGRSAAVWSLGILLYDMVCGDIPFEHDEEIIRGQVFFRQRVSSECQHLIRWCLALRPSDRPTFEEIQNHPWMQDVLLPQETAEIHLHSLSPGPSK
T11 sequence (P54756 25-1037): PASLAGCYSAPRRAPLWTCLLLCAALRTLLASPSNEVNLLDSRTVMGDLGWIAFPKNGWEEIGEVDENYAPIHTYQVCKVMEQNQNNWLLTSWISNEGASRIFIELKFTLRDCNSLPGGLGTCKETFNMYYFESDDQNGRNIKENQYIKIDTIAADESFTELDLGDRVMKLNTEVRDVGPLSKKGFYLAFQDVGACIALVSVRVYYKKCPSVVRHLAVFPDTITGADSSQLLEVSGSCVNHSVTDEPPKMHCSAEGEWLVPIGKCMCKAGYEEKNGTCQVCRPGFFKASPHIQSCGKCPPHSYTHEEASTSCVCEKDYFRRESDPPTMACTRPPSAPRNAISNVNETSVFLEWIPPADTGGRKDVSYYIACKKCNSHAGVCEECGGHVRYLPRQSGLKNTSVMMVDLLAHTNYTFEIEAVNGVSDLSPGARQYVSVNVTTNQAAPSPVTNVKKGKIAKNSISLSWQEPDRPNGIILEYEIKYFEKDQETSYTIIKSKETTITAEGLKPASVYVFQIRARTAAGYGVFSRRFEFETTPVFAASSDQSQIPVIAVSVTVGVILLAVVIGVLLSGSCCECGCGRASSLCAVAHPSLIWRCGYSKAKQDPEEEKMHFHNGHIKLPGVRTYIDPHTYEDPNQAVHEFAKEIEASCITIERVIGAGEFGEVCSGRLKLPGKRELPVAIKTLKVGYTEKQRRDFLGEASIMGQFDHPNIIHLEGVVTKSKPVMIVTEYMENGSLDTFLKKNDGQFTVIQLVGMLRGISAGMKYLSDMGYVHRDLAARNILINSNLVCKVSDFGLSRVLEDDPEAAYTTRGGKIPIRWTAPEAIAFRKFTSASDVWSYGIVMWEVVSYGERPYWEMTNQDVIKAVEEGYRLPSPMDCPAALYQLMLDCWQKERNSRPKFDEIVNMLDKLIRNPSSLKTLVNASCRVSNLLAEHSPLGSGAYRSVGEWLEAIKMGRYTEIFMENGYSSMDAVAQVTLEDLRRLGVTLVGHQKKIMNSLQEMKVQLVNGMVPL
T5 sequence (Q9UK32 whole entry): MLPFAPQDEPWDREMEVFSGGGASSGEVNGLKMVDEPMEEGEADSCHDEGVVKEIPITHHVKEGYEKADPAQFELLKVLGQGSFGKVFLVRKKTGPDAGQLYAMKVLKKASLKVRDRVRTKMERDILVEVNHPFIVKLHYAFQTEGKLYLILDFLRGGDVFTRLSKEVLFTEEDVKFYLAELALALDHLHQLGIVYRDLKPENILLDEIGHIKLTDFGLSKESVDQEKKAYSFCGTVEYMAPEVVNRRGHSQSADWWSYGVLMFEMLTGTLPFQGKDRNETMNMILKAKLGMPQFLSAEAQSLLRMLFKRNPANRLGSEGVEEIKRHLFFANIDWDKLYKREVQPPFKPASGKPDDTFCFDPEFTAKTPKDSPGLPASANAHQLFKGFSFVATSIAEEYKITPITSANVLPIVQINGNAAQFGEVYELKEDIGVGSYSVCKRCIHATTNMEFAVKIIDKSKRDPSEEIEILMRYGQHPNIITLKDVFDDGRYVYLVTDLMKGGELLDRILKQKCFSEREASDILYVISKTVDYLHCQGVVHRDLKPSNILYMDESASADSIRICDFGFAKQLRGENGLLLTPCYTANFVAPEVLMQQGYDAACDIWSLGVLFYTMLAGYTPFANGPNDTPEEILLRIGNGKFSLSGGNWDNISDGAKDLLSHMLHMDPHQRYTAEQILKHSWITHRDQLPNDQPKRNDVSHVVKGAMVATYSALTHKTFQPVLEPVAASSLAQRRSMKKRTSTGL

| Compound | inhibition at 10 µM (PRKCB1 (PKC beta I)) | inhibition at 10 µM (TYRO3 (RSE)) | inhibition at 10 µM (PAK6) | inhibition at 10 µM (PIM1) | inhibition at 10 µM (RPS6KA6 (RSK4)) | inhibition at 10 µM (PDGFRA (PDGFR alpha)) | inhibition at 10 µM (PLK2) | inhibition at 10 µM (LYN A) | inhibition at 10 µM (INSRR (IRR)) | inhibition at 10 µM (EGFR (ErbB1)) | inhibition at 10 µM (EPHA5) | inhibition at 10 µM (MET (cMet)) | inhibition at 10 µM (SGK (SGK1)) | inhibition at 10 µM (CSNK1G3 (CK1 gamma 3)) | inhibition at 10 µM (TBK1) | further results |
| --- | --- | --- | --- | --- | --- | --- | --- | --- | --- | --- | --- | --- | --- | --- | --- | --- |
| XMD8-92 [Compound 2, reference compound] | – | – | – | – | – | – | – | – | – | – | – | – | – | – | – | PRKCB1 (PKC beta I) % Inhibition (PRKCB1 (PKC beta I); 10 µM compound, ATP Km app): 13%; TYRO3 (RSE) % Inhibition (TYRO3 (RSE); 10 µM compound, ATP Km app): 9%; PAK6 % Inhibition (PAK6; 10 µM compound, ATP Km app): 33%; PIM1 % Inhibition (PIM1; 10 µM compound, ATP Km app): 35%; RPS6KA6 (RSK4) % Inhibition (RPS6KA6 (RSK4); 10 µM compound, ATP Km app): 72%; PDGFRA (PDGFR alpha) % Inhibition (PDGFRA (PDGFR alpha); 10 µM compound, ATP Km app): 8%; PLK2 % Inhibition (PLK2; 10 µM compound, ATP Km app): 12%; LYN A % Inhibition (LYN A; 10 µM compound, ATP Km app): 66%; INSRR (IRR) % Inhibition (INSRR (IRR); 10 µM compound, ATP Km app): 21%; EGFR (ErbB1) % Inhibition (EGFR (ErbB1); 10 µM compound, ATP Km app): -11%; EPHA5 % Inhibition (EPHA5; 10 µM compound, ATP Km app): 21%; MET (cMet) % Inhibition (MET (cMet); 10 µM compound, ATP Km app): 57%; SGK (SGK1) % Inhibition (SGK (SGK1); 10 µM compound, ATP Km app): 66%; CSNK1G3 (CK1 gamma 3) % Inhibition (CSNK1G3 (CK1 gamma 3); 10 µM compound, ATP Km app): 31%; TBK1 % Inhibition (TBK1; 10 µM compound, ATP Km app): 43% |
| Cc1ncc(-c2nc(Nc3ccc(C(=O)NCCN4CCCCC4)cc3)ncc2F)n1C(C)C [Compound 3] | 86% | 92% | 27% | 65% | 82% | 62% | 48% | 88% | 105% | 13% | 71% | 85% | 91% | 89% | 86% | – |
| Cc1cc(Nc2nc(N)nn2C(=O)NC(C)C)ccc1Cl [Compound 5] | 2.25% | 14% | 14% | -1.79% | 58% | 22% | 63% | 25% | 5.63% | 1% | 6.49% | 25% | 9% | 17% | 27% | – |
